Experiment [1] deals with T1, β1-adrenergic receptor (B1-AR) (Homo sapiens, UniProt P08588).
T1 construct: expressed in transfected cells
In words: cAMP Gs dynamic HTRF assay, cells expressing β1-adrenergic receptor. The experiment is classed as cell-based. The following applies: CHO-K1 (HitHunter) cells; read-out: Average pEC50 [Receptor subtype: B1-AR; Cell type: CHO-K1 (HitHunter)] (converted). The procedure: (§1) cAMP homogeneous time-resolved fluorescence (HTRF): experimental methods. Compound efficacy is determined using the cAMP Gs dynamic HTRF assay (Cisbio, catalog #62AM4PEC) largely following the manufacturer's instructions, also detailed below.
(§2) Standard serial dilution curves are 10-point, 5-fold dilutions starting from a highest concentration of 10 μM. […] Assay plates are centrifuged at 500×g for 10 seconds. Compounds and IBMX are prepared at 2× final dose to compensate for addition of cells.
(§3) Cell preparation: 1× stimulation buffer, washing PBS (Dulbecco's phosphate-buffered saline, —Mg —Ca; Caisson Labs, catalog #PBL01), assay PBS (Dulbecco's phosphate-buffered saline, +Mg, +Ca; Caisson Labs, catalog #PBL02) and Versene (0.02% EDTA disodium salt solution in PBS without calcium or magnesium; Caisson Labs, catalog #EDL01) are pre-warmed to 37° C. Cells expressing beta-adrenergic receptor were washed in washing PBS to remove growth medium and then released from the surface by incubating with Versene for 5-10 minutes at 37° C. Cells are harvested using assay PBS, counted manually by hemocytometer or by an automated cell counter, pelleted by centrifugation (200×g, 5 minutes) and resuspended in 37° C. 1× stimulation buffer to a final density of […]. 5 μL of the suspended cell solution (7500 cell total) are added to all wells of the 384 well assay plate, the assay plate was covered with an Axygen® plate seal (Corning PCR-SP) and incubated in a humidified 37° C. environment supplemented with 5% CO2 for 30 minutes.
(§4) HTRF reagent addition, reading and data analysis: After 30 minutes of cell stimulation with test compound, the assay plates are centrifuged at 500×g for 10 seconds, and incubation was stopped with the addition of 5 μL cAMP-D2 acceptor, diluted 1:21 in detection and lysis buffer 2 (Cisbio 62CL2FDF) was added to all cells. Subsequently, 5 μL Anti-cAMP-Eu Donor, diluted 1:21 in detection and lysis buffer 2, was added to cells. Plates were sealed and reactions gently ‘vortexed’ at 900 rpm on a Heidolph Titramax 1000 for at least 30 minutes at room temperature. Plates are centrifuged again at 500×g for 10 seconds, and HTRF was measured using a Tecan Spark plate reader at 50 flashes per well. […] Potency estimates (EC50 and pEC50) are derived from the four-parameter nonlinear regression of the concentration-effect curve and an estimate of relative efficacy is determined by comparing the magnitude of the test compound HTRF signal window (min-max dose) with the signal window of the full agonist control, isoproterenol.
In general terms: In TR-FRET formats the signal depends on donor and acceptor labels being close together.

In experiment [2] the target is T2, β2-adrenergic receptor (B2-AR) (Homo sapiens, UniProt P07550).
T2 construct: expressed in transfected cells
In words: cAMP Gs dynamic HTRF assay, cells expressing β2-adrenergic receptor. The format is cell-based. Conditions: CHO-K1 (HitHunter) cells; read-out: Average pEC50 [Receptor subtype: B2-AR; Cell type: CHO-K1 (HitHunter)] (converted). On the procedure: as §1, §2, §3, §4

T2 sequence (P07550 whole entry): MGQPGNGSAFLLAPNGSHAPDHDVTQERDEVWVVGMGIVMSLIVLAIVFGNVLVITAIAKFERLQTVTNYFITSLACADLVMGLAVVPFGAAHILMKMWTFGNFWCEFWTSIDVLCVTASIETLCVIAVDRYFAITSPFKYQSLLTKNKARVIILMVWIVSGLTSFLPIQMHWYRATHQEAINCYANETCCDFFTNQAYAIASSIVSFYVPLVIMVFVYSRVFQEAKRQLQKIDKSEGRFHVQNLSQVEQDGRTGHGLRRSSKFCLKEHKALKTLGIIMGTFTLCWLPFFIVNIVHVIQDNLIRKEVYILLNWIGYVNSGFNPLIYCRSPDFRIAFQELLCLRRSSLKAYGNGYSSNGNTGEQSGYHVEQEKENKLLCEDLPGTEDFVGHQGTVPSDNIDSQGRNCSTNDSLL
T1 sequence (P08588 whole entry): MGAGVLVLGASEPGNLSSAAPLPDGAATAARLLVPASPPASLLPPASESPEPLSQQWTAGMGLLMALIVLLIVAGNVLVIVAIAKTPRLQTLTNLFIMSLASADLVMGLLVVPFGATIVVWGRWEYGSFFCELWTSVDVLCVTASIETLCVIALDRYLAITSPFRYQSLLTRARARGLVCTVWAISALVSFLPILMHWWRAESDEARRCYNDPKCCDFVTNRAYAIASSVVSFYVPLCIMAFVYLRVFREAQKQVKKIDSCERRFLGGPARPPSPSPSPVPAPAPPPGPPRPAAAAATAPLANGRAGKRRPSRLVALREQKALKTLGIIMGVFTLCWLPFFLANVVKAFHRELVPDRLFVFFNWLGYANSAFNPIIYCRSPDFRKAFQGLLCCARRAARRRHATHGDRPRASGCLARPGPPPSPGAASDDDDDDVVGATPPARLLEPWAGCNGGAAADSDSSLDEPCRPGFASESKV

For the compound `Cn1c(=O)ccc2c([C@H](O)CNC(C)(C)C)cccc21` [Compound 04-15], the figures for the EC50 in experiment [1] and in experiment [2] were above 1 µM and 0.1 to 1 µM, respectively.
`COc1ccc(C[C@@H](C)NC[C@H](O)c2cccc3[nH]c4ccccc4c23)cc1` [Compound 04-125]: the EC50 in experiment [1] is 0.01 to 0.1 µM; in experiment [2], below 0.01 µM.
As for `Cc1ccc2cccc([C@@H](O)CNC(C)(C)C)c2n1` [Compound 04-88], the EC50 in experiment [1] and in experiment [2] was below 0.01 µM each time.
Regarding `CC(C)(C)NC[C@H](O)c1cccc2[nH]c(=O)ccc12` [Compound 04-1, (R)-5-(2-(tert-butylamino)-1-hydroxyethyl)quinolin-2(1H)-one], the EC50 in experiment [1] and in experiment [2] was below 0.01 µM each time.
In the case of `CC(C)(C)NC[C@H](O)c1cc(Cl)c2[nH]cnc2c1` [Compound 04-117], the values for the EC50 in experiment [1] and in experiment [2] were 0.1 to 1 µM and below 0.01 µM, respectively.
On the same counts, the results for `CC(C)(C)NC[C@@H](O)c1c2cn[nH]c2cc[n+]1[O-]` [Compound 04-107] are above 1 µM and 0.1 to 1 µM.
For the compound `Cc1ccnc2c([C@@H](O)CNC(C)(C)C)cccc12` [Compound 04-84], the values for the EC50 in experiment [1] and in experiment [2] were below 0.01 µM and 0.01 to 0.1 µM, respectively.
The corresponding values for `CC(C)(C)NC[C@H](O)c1cc(F)cc2cccnc12` [Compound 04-76] are below 0.01 µM and below 0.01 µM.
On the same counts, the results for `Cc1ccc2[nH]ncc2c1[C@@H](O)CNC(C)(C)C` [Compound 04-138] are above 1 µM and 0.1 to 1 µM.
With `Cc1cc([C@@H](O)CNC(C)(C)C)c2cn[nH]c2c1` [Compound 04-109], the results for the EC50 in experiment [1] and in experiment [2] were 0.01 to 0.1 µM and below 0.01 µM, respectively.
With `CC(C)(C)NC[C@H](O)c1ccc2cccc(C#N)c2n1` [Compound 04-135], the EC50 in experiment [1] and in experiment [2] was below 0.01 µM throughout.
As for `CC(C)(C)NC[C@@H](O)c1cccc2nccnc12` [Compound 04-74], the EC50 in experiment [1] and in experiment [2] was above 1 µM each time.
Consider `CC(C)(C)NC[C@@H](O)c1cccc2c(C#N)ccnc12` [Compound 04-77], for which the EC50 in experiment [2] is above 1 µM.
Take `CC(C)(C)NC[C@H](O)c1cccc2c(C(F)(F)F)ccnc12` [Compound 04-69]: the EC50 in experiment [1] is 0.01 to 0.1 µM; in experiment [2] it was 0.1 to 1 µM.
The corresponding values for `CC(C)(C)NC[C@H](O)c1cccc2c1C1(CC1)C(=O)N2` [Compound 04-103] are 0.1 to 1 µM and 0.1 to 1 µM.
For `Cc1c[nH]c2cccc([C@@H](O)CNC(C)(C)C)c12` [Compound 04-111], the EC50 in experiment [1] and in experiment [2] was above 1 µM throughout.
In the case of `Cc1nc2cc([C@@H](O)CNC(C)(C)C)ccc2[nH]1` [Compound 04-118], the EC50 in experiment [1] and in experiment [2] was above 1 µM in each case.
In the case of `Cc1cc(N)nc([C@@H](O)CNC(C)(C)C)c1` [Compound 02-13], the EC50 in experiment [1] and in experiment [2] was 0.01 to 0.1 µM each time.
Take `CC(C)(C)NC[C@H](O)c1ccc(Cl)c2[nH]ncc12` [Compound 04-108]: the EC50 in experiment [1] and in experiment [2] was below 0.01 µM throughout.
Turning to `CC(C)(C)NC[C@H](O)c1ccc2ccc(C(F)(F)F)cc2n1` [Compound 04-36], the EC50 in experiment [1] and in experiment [2] was below 0.01 µM throughout.
Take `COc1ccc([C@@H](O)CNC(C)(C)C)c2cn[nH]c12` [Compound 04-150]: the figures for the EC50 in experiment [1] and in experiment [2] were 0.01 to 0.1 µM and below 0.01 µM, respectively.
Turning to `CC(C)(C)NC[C@H](O)c1ccc(F)c2[nH]c(=O)ccc12` [Compound 04-4], the EC50 in experiment [1] and in experiment [2] was below 0.01 µM throughout.
In the case of `COc1cc([C@@H](O)CNC(C)(C)C)c2cn[nH]c2c1` [Compound 04-154], the EC50 is 0.1 to 1 µM in experiment [1] and below 0.01 µM in experiment [2].
As to `CC(C)(C)NC[C@H](O)c1ccnc2cccnc12` [Compound 04-73], the EC50 in experiment [1] and in experiment [2] was 0.01 to 0.1 µM each time.
For the compound `CC(C)(C)NC[C@H](O)c1ccc2c(c1)CC(=O)N2` [Compound 04-121], the EC50 in experiment [2] was above 1 µM.
In the case of `CC(C)(C)NC[C@H](O)c1c(F)ccc2cccnc12` [Compound 04-90], the EC50 in experiment [1] was 0.1 to 1 µM; in experiment [2], above 1 µM.
On to `Cn1ncc2c([C@@H](O)CNC(C)(C)C)cccc21` [Compound 04-27], for which the values for the EC50 in experiment [1] and in experiment [2] were below 0.01 µM and 0.01 to 0.1 µM, respectively.
As for `Cc1cc2c([C@H](O)CNC(C)(C)C)cccc2[nH]c1=O` [Compound 04-17], the values for the EC50 in experiment [1] and in experiment [2] were 0.1 to 1 µM and above 1 µM, respectively.
Take `CC(C)(C)NC[C@H](O)c1nc(C(F)(F)F)cc2ccccc12` [Compound 04-91]: the EC50 in experiment [1] is above 1 µM.
As to `CC(C)(C)NC[C@H](O)c1cccc2[nH]c(=O)oc12` [Compound 04-116], the EC50 in experiment [1] and in experiment [2] was below 0.01 µM in each case.
Regarding `CC(C)(C)NC[C@H](O)c1ccc2c(n1)NCCO2` [Compound 04-10], the EC50 in experiment [1] and in experiment [2] was 0.01 to 0.1 µM each time.
For `CC(C)(C)NC[C@H](O)c1cccc2ccc(C#N)nc12` [Compound 04-72], the EC50 in experiment [1] and in experiment [2] was below 0.01 µM throughout.
On to `CC(C)(C)NC[C@H](O)c1cccc2ccc(C(F)(F)F)nc12` [Compound 04-85], for which the EC50 in experiment [1] and in experiment [2] was below 0.01 µM throughout.
`CC(C)(C)NC[C@H](O)c1cccc2[nH]ncc12` [Compound 04-153]: the EC50 in experiment [1] was above 1 µM; in experiment [2] it was 0.01 to 0.1 µM.
On to `COc1ccc(CC(C)(C)NC[C@H](O)c2cccc3[nH]c4ccccc4c23)cc1` [Compound 04-55], for which the figures for the EC50 in experiment [1] and in experiment [2] were 0.01 to 0.1 µM and below 0.01 µM, respectively.
The corresponding values for `CC(C)(C)NC[C@H](O)c1cnc2[nH]cnc2c1` [Compound 04-157] are 0.1 to 1 µM and 0.01 to 0.1 µM.
On the same counts, the results for `CC(C)(C)NC[C@@H](O)c1ccc2cccc(F)c2n1` [Compound 04-42] are 0.1 to 1 µM and 0.1 to 1 µM.
For `Cc1nc([C@@H](O)CNC(C)(C)C)cnc1N` [Compound 02-4], the EC50 is 0.1 to 1 µM in experiment [1] and above 1 µM in experiment [2].
On the same counts, the results for `CC(C)(C)NC[C@H](O)c1cccc2c1CC(=O)N2` [Compound 04-110] are above 1 µM and above 1 µM.
Consider `CC(C)(C)NC[C@@H](O)c1ccc(F)c2cccnc12` [Compound 04-79], for which the EC50 in experiment [1] and in experiment [2] was 0.1 to 1 µM in each case.
Turning to `CC(C)(C)NC[C@H](O)c1nccc2[nH]ncc12` [Compound 04-144, (S)-2-(tert-butylamino)-1-(1H-pyrazolo[4,3-c]pyridin-4-yl)ethan-1-ol], the EC50 in experiment [1] and in experiment [2] was above 1 µM throughout.
On to `CC(C)(C)NC[C@@H](O)c1cccc2oc(=O)ccc12` [Compound 04-14], for which the EC50 in experiment [1] is 0.1 to 1 µM; in experiment [2], below 0.01 µM.
Take `Cc1nc(N)c(C#N)cc1[C@H](O)CNC(C)(C)C` [Compound 02-11]: the EC50 in experiment [1] and in experiment [2] was above 1 µM in each case.
With `CC(C)(C)NC[C@H](O)c1cccc2c(C#N)ccnc12` [Compound 04-78], the EC50 in experiment [1] was 0.1 to 1 µM.
With `CC(C)(C)NC[C@@H](O)c1cccc2c(C(F)(F)F)ccnc12` [Compound 04-70], in experiment [2], the EC50 was below 0.01 µM.
As for `CC(C)(C)NC[C@@H](O)c1c(F)ccc2cccnc12` [Compound 04-89], the EC50 in experiment [1] is above 1 µM.
Still for that read-out and setting: to `Cc1noc2cccc([C@H](O)CNC(C)(C)C)c12` [Compound 04-30] belongs above 1 µM.

The record behind these values is patent publication US20220315534A1, “BETA ADRENERGIC AGONIST AND METHODS OF USING THE SAME” (Curasen Therapeutics, Inc., priority 2019, published 2022).
